# Assay results as given in patent publication US8785489B2, “Heteroaryl substituted indole compounds useful as MMP-13 inhibitors” (Boehringer Ingelheim International GmbH, priority 2008, dated 2014).
# Molecular target: MMP13 (Homo sapiens (Human), UniProt P45452)
# Assay: EnzoLyte 520 Generic MMP Assay Kit, 5-FAM/QXL 520 FRET peptide substrate
# Assay type: biochemical
# From the text: The EnzoLyte™ 520 Generic MMP Assay Kit (AnaSpec Inc.) can detect the activity of several MMPs including MMP-1, 2, 3, 7, 8, 9, 13, and 14. This kit uses a 5-FAM/QXL™ 520 fluorescence resonance energy transfer (FRET) peptide as an MMP substrate. In the intact FRET peptide, the fluorescence of 5-FAM is quenched by QXL™ 520. Upon cleavage into two separate fragments by MMPs, the fluorescence of 5-FAM is recovered, and can be monitored at excitation/emission wavelengths=490 nm/520 nm. The assays are performed in a convenient 96-well or 384-well microplate format.
row,IC50,SMILES
1,6 nM,Cc1[nH]c(C(=O)NCc2ccncc2)nc1-c1ccc2[nH]c(-c3nc(C4CC4)no3)cc2c1
2,4 nM,"Cc1noc(-c2cc3cc(-c4cc(C(=O)NCc5ccnc(Cl)c5)nn4C)ccc3[nH]2)n1 [N-[(2-chloropyridin-4-yl)methyl]-1-methyl-5-[2-(3-methyl-1,2,4-oxadiazol-5-yl)-1H-indol-5-yl]-1H-pyrazole-3-carboxamide]"
3,185 nM,"Cc1noc(-c2cc3cc(-c4cc(C(=O)NCc5ccn(C)n5)nn4C)ccc3[nH]2)n1 [1-methyl-5-[2-(3-methyl-1,2,4-oxadiazol-5-yl)-1H-indol-5-yl]-N-[(1-methyl-1H-pyrazol-3-yl)methyl]-1H-pyrazole-3-carboxamide]"
4,0.7 nM,"Cc1noc(-c2cc3cc(-c4nc(C(=O)NCc5ccno5)[nH]c4C)ccc3[nH]2)n1 [N-(isoxazol-5-ylmethyl)-5-methyl-4-[2-(3-methyl-1,2,4-oxadiazol-5-yl)-1H-indol-5-yl]-1H-imidazole-2-carboxamide]"
5,2 nM,"Cc1noc(-c2cc3cc(-c4nc(C(=O)NCc5ccccc5)[nH]c4C)ccc3[nH]2)n1 [N-benzyl-5-methyl-4-[2-(3-methyl-1,2,4-oxadiazol-5-yl)-1H-indol-5-yl]-1H-imidazole-2-carboxamide]"
6,20 nM,Cc1noc(-c2cc3nc(-c4nc(C(=O)NCc5ccncc5)[nH]c4C)ccc3[nH]2)n1
7,64 nM,Cc1noc(-c2cc3cc(-c4nc(C(=O)N5CCCCC5)[nH]c4C)ccc3[nH]2)n1
8,10 nM,"Cc1noc(-c2cc3cc(-c4nc(C(N)=O)[nH]c4C)ccc3[nH]2)n1 [5-methyl-4-[2-(3-methyl-1,2,4-oxadiazol-5-yl)-1H-indol-5-yl]-1H-imidazole-2-carboxamide]"
9,62 nM,O=C(NCc1ccncc1)c1cc(-c2ccc3[nH]c(-c4ccncc4)cc3c2)ccn1 [4-(2-Pyridin-4-yl-1H-indol-5-yl)-pyridine-2-carboxylic acid (pyridin-4-ylmethyl)-amide]
10,73 nM,"Cc1noc(-c2cc3cc(-c4cc(C(=O)NCc5nccs5)nn4C)ccc3[nH]2)n1 [1-methyl-5-[2-(3-methyl-1,2,4-oxadiazol-5-yl)-1H-indol-5-yl]-N-(1,3-thiazol-2-ylmethyl)-1H-pyrazole-3-carboxamide]"
11,10 nM,CCNC(=O)c1nc(-c2ccc3[nH]c(-c4nc(C)no4)cc3c2)c(C)[nH]1
12,94 nM,"Cc1noc(-c2cc3cc(-c4cc(C(=O)NCc5cscn5)nn4C)ccc3[nH]2)n1 [1-methyl-5-[2-(3-methyl-1,2,4-oxadiazol-5-yl)-1H-indol-5-yl]-N-(1,3-thiazol-4-ylmethyl)-1H-pyrazole-3-carboxamide]"
13,2 nM,Cc1noc(-c2cc3cc(-c4nc(C(=O)NCc5cccs5)[nH]c4C)ccc3[nH]2)n1
14,0.2 nM,Cc1noc(-c2cc3cc(-c4cc(C(=O)NCc5ccc(C(=O)O)cc5)nn4C)ccc3[nH]2)n1
15,2 nM,Cc1noc(-c2cc3cc(-c4nc(C(=O)NCc5ccc(C#N)cc5)[nH]c4C)ccc3[nH]2)n1
16,4 nM,Cc1noc(-c2cc3cc(-c4nc(C(=O)NCc5nnc6n5CCC6)[nH]c4C)ccc3[nH]2)n1
17,0.9 nM,"Cc1noc(-c2cc3cc(-c4nc(C(=O)NCc5cc(C)on5)[nH]c4C)ccc3[nH]2)n1 [5-methyl-N-[(5-methylisoxazol-3-yl)methyl]-4-[2-(3-methyl-1,2,4-oxadiazol-5-yl)-1H-indol-5-yl]-1H-imidazole-2-carboxamide]"
18,5 nM,Cc1noc(-c2cc3cc(-c4nc(C(=O)NCCN5CCOCC5)[nH]c4C)ccc3[nH]2)n1
19,97 nM,CCOC(=O)c1cc2cc(-c3cc(C(=O)NCc4ccncc4)nn3C)ccc2[nH]1
20,10 nM,"Cc1noc(-c2cc3cc(-c4cc(C(=O)NCc5cncs5)nn4C)ccc3[nH]2)n1 [1-methyl-5-[2-(3-methyl-1,2,4-oxadiazol-5-yl)-1H-indol-5-yl]-N-(1,3-thiazol-5-ylmethyl)-1H-pyrazole-3-carboxamide]"
21,15 nM,Cc1noc(-c2cc3cc(-c4nc(C(=O)NC(C)c5cccs5)[nH]c4C)ccc3[nH]2)n1 (centres unmarked)
22,88 nM,Cc1cc(Cn2cc(-c3nc(C(=O)NCc4ccc(C(=O)O)cc4)[nH]c3C)cn2)ccc1F

row,IC50,SMILES
1,35 nM,CCOC(=O)c1cc2cc(-c3ccnc(C(=O)NCc4ccc(=O)[nH]c4)c3)ccc2[nH]1
2,2 nM,Cn1nc(C(=O)NCc2ccc(C(=O)O)cc2)cc1-c1ccc2[nH]c(-c3ccnc(F)c3)cc2c1
3,48 nM,Cn1nc(C(=O)NCc2ccc(C(=O)O)cc2)cc1-c1ccc2[nH]c(-c3ccc(F)nc3)cc2c1
4,125 nM,CCOC(=O)c1cc2cc(-c3cc(C(=O)NCc4ccc(=O)[nH]c4)nn3C)ccc2[nH]1
5,26 nM,"Cc1noc(-c2cc3cc(-c4nc(C(=O)NC5CC5)[nH]c4C)ccc3[nH]2)n1 [N-cyclopropyl-5-methyl-4-[2-(3-methyl-1,2,4-oxadiazol-5-yl)-1H-indol-5-yl]-1H-imidazole-2-carboxamide]"
6,0.6 nM,Cc1noc(-c2cc3cc(-c4nc(C(=O)NCc5ccncn5)[nH]c4C)ccc3[nH]2)n1
7,1.1 nM,"Cc1noc(-c2cc3cc(-c4nc(C(=O)NCC5CCOCC5)[nH]c4C)ccc3[nH]2)n1 [5-methyl-4-[2-(3-methyl-1,2,4-oxadiazol-5-yl)-1H-indol-5-yl]-N-(tetrahydro-2H-pyran-4-ylmethyl)-1H-imidazole-2-carboxamide]"
8,2 nM,Cc1noc(-c2cc3cc(-c4nc(C(=O)NCc5ccc(N)nc5)[nH]c4C)ccc3[nH]2)n1
9,18 nM,Cc1noc(-c2cc3cc(-c4nc(C(=O)NCc5ccc(C(O)C(F)(F)F)cc5)[nH]c4C)ccc3[nH]2)n1 (centres unmarked)
10,26 nM,Cc1noc(-c2cc3cc(-c4cc(C(=O)NCc5ccc(F)cc5)nn4C)ccc3[nH]2)n1
11,8 nM,"Cc1noc(-c2cc3cc(-c4nc(C(=O)NCC5CC5)[nH]c4C)ccc3[nH]2)n1 [N-(cyclopropylmethyl)-5-methyl-4-[2-(3-methyl-1,2,4-oxadiazol-5-yl)-1H-indol-5-yl]-1H-imidazole-2-carboxamide]"
12,3 nM,Cn1nc(C(=O)NCc2ccc(C(=O)O)cc2)cc1-c1ccc2[nH]c(-c3cccnc3)cc2c1
13,106 nM,Cc1noc(-c2cc3cc(-c4nc(C(=O)NC5CCOCC5)[nH]c4C)ccc3[nH]2)n1
14,116 nM,"Cc1noc(-c2cc3cc(-c4cc(C(=O)NCC5CCOCC5)nn4C)ccc3[nH]2)n1 [1-methyl-5-[2-(3-methyl-1,2,4-oxadiazol-5-yl)-1H-indol-5-yl]-N-(tetrahydro-2H-pyran-4-ylmethyl)-1H-pyrazole-3-carboxamide]"
15,190 nM,COC(=O)c1cc(-c2ccc3[nH]c(-c4nc(C)no4)cc3c2)n(C)n1
16,6 nM,Cc1noc(-c2cc3cc(-c4nc(C(=O)NCc5nnc[nH]5)[nH]c4C)ccc3[nH]2)n1
17,18 nM,Cc1[nH]c(C(=O)NCc2ccncc2)nc1-c1ccc2[nH]c(-c3nc(C(C)C)no3)cc2c1
18,39 nM,CCOC(=O)c1cc2cc(-c3nc(C(=O)OCC)[nH]c3C)ccc2[nH]1 [5-(2-Ethoxycarbonyl-5-methyl-1H-imidazol-4-yl)-1H-indole-2-carboxylic acid ethyl ester]
19,3 nM,Cc1noc(-c2cc3cc(-c4nc(C(=O)NCc5ccoc5)[nH]c4C)ccc3[nH]2)n1
20,52 nM,Cn1nc(C(=O)NCc2ccc(C(=O)O)cc2)cc1-c1ccc2[nH]c(C#N)cc2c1
21,0.7 nM,CCOC(=O)c1cc2cc(-c3ccnc(C(=O)NCc4ccc(C(=O)O)cc4)c3)ccc2[nH]1
22,0.9 nM,Cc1noc(-c2cc3cc(-c4nc(C(=O)NCc5noc(C)n5)[nH]c4C)ccc3[nH]2)n1
